Where no end group is shown, it is not given here. [ ]: non-standard residue; d: D form. Lys(Me2) = CN(C)CCCC[C@H](N)C(=O)O
Tests used:
Assay in all cases: Histone peptide microarray
Assay type in all cases: binding, human
DIDO1 = conditions: histone peptide array, GST-tagged reader; arrays performed twice, n of 4
In short: (§1)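 Histone peptide library (293 synthetic peptides, single/combinatorial PTMs) arrayed and probed with 0.5 μM purified GST-PHD domain; optimized protocol; quadruplicate mean and SD reported.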

AIRE (PP) = conditions: histone peptide array, GST-tagged reader; arrays performed twice, n of 4
In short: as §1

KDM5A (3) = conditions: histone peptide array, GST-tagged reader; arrays performed twice, n of 4
In short: as §1

SP140L = conditions: histone peptide array, GST-tagged reader; arrays performed twice, n of 4
In short: as §1

KDM7A = conditions: histone peptide array, GST-tagged reader; arrays performed twice, n of 4
In short: as §1

CHD5 (PPCC) = conditions: histone peptide array, GST-tagged reader; PPCC = Dual PHD + Dual Chromodomain; arrays performed twice, n of 4
In short: as §1

KDM4C (TTP) = conditions: histone peptide array, GST-tagged reader; TTP = Tandem Tudor domain + PHD; arrays performed twice, n of 4
In short: as §1

BPTF (PB) = conditions: histone peptide array, GST-tagged reader; PB = PHD + Bromodomain; arrays performed twice, n of 4
In short: as §1

BAZ2B = conditions: histone peptide array, GST-tagged reader; arrays performed twice, n of 4
In short: as §1

CHD4 (PPCC) = conditions: histone peptide array, GST-tagged reader; PPCC = Dual PHD + Dual Chromodomain; arrays performed twice, n of 4
In short: as §1

CHD5 (PCC) = conditions: histone peptide array, GST-tagged reader; PCC = PHD + Dual Chromodomain; arrays performed twice, n of 4
In short: as §1

ING3 = conditions: histone peptide array, GST-tagged reader; arrays performed twice, n of 4
In short: as §1

TRIM66 (PB) = conditions: histone peptide array, GST-tagged reader; PB = PHD + Bromodomain; arrays performed twice, n of 4
In short: as §1

MLL5 = conditions: histone peptide array, GST-tagged reader; arrays performed twice, n of 4
In short: as §1

ING5 = conditions: histone peptide array, GST-tagged reader; arrays performed twice, n of 4
In short: as §1

MORC3 (CW) = conditions: histone peptide array, GST-tagged reader; CW = CW-type Zn-finger; arrays performed twice, n of 4
In short: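 GST-PHD reader, 0.5 μM, probed on 293-peptide histone array (single/combinatorial PTMs); optimized array protocol; signal = mean ± SD, n = 4.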

ING1 = conditions: histone peptide array, GST-tagged reader; arrays performed twice, n of 4
In short: as §1

PHF8 = conditions: histone peptide array, GST-tagged reader; arrays performed twice, n of 4
In short: as §1

PHF21A = conditions: histone peptide array, GST-tagged reader; arrays performed twice, n of 4
In short: as §1

DPF2 (PPC2W2) = conditions: histone peptide array, GST-tagged reader; PPC2W2 = Dual PHD + C2W2-type Zn-finger; arrays performed twice, n of 4
In short: as §1

KDM5B (1) = conditions: histone peptide array, GST-tagged reader; arrays performed twice, n of 4
In short: as §1

PHF2 = conditions: histone peptide array, GST-tagged reader; arrays performed twice, n of 4
In short: as §1

PHF13 = conditions: histone peptide array, GST-tagged reader; arrays performed twice, n of 4
In short: as §1

PHF23 = conditions: histone peptide array, GST-tagged reader; arrays performed twice, n of 4
In short: as §1

KDM5A (1) = conditions: histone peptide array, GST-tagged reader; arrays performed twice, n of 4
In short: as §1

TAF3 = conditions: histone peptide array, GST-tagged reader; arrays performed twice, n of 4
In short: as §1

ING4 = conditions: histone peptide array, GST-tagged reader; arrays performed twice, n of 4
In short: as §1

RAG2 = conditions: histone peptide array, GST-tagged reader; arrays performed twice, n of 4
In short: as §1

ING2 = conditions: histone peptide array, GST-tagged reader; arrays performed twice, n of 4
In short: as §1

KDM5B (3) = conditions: histone peptide array, GST-tagged reader; arrays performed twice, n of 4
In short: as §1

PHRF1 (RP) = conditions: histone peptide array, GST-tagged reader; arrays performed twice, n of 4
In short: as §1

H3.3K36me2 (27-45): H3.3 27-45 (KSAPSTGGV[Lys(Me2)]KPHRYRPGT; UniProt P84243 28-46, looked up, fragment)
Array Heatmap signal, DIDO1 (DIDO1): 0.7878
Array Heatmap signal, AIRE (PP) (AIRE (PP)): 0.4867
Array Heatmap signal, KDM5A (3) (KDM5A (3)): 0.4963
Array Heatmap signal, SP140L (SP140L): 0.3879
Array Heatmap signal, KDM7A (KDM7A): 0.3737
Array Heatmap signal, CHD5 (PPCC) (CHD5 (PPCC)): 0.6024
Array Heatmap signal, KDM4C (TTP) (KDM4C (TTP)): 0.5418
Array Heatmap signal, BPTF (PB) (BPTF (PB)): 0.3735
Array Heatmap signal, BAZ2B (BAZ2B): 0.4965
Array Heatmap signal, CHD4 (PPCC) (CHD4 (PPCC)): 0.5698
Array Heatmap signal, CHD5 (PCC) (CHD5 (PCC)): 0.8212
Array Heatmap signal, ING3 (ING3): 0.5215
Array Heatmap signal, TRIM66 (PB) (TRIM66 (PB)): 0.6104
Array Heatmap signal, MLL5 (MLL5): 0.5651
Array Heatmap signal, ING5 (ING5): 0.3908
Array Heatmap signal, MORC3 (CW) (MORC3 (CW)): 0.4027
Array Heatmap signal, ING1 (ING1): 0.5396
Array Heatmap signal, PHF8 (PHF8): 0.3824
Array Heatmap signal, PHF21A (PHF21A): 0.4763
Array Heatmap signal, DPF2 (PPC2W2) (DPF2 (PPC2W2)): 0.6778
Array Heatmap signal, KDM5B (1) (KDM5B (1)): 0.6701
Array Heatmap signal, PHF2 (PHF2): 0.5053
Array Heatmap signal, PHF13 (PHF13): 0.6587
Array Heatmap signal, PHF23 (PHF23): 0.5877
Array Heatmap signal, KDM5A (1) (KDM5A (1)): 0.505
Array Heatmap signal, TAF3 (TAF3): 0.2867
Array Heatmap signal, ING4 (ING4): 0.4773
Array Heatmap signal, RAG2 (RAG2): 0.3087
Array Heatmap signal, ING2 (ING2): 0.5971
Array Heatmap signal, KDM5B (3) (KDM5B (3)): 0.5383
Array Heatmap signal, PHRF1 (RP) (PHRF1 (RP)): 0.4622

Source: PMC6979384, “Characterization of the plant homeodomain (PHD) reader family for their histone tail interactions” (Epigenetics & Chromatin, 2020)
